Test results: patent US5079243A, “Benzazepines” (Novo Nordisk A/S, priority 1989, dated 1992)

Test system: stereotyped gnawing behaviour in mice induced by methylphenidate
Assay: methylphenidate induced gnawing test in mice
Type: in vivo
Settings: Mus musculus

Row | Compound | ED50 [mg/kg]
1 | COCOc1cc2c(cc1Cl)CCN(C)CC2c1cccc2ccoc12 (single isomer, unassigned; (+)) [Example 1, (+)-5-(7-benzofuranyl)-8-chloro-7-methoxymethyloxy-3-methyl-2,3,4,5-tetrahydro-1H-3-benzazepine] | 2
2 | COCOc1cc2c(cc1Cl)CCN(C)CC2c1cccc2c1OCC2 (single isomer, unassigned; (+)) [Example 2, (+)-8-chloro-5-(2,3-dihydro-benzofuran-7-yl)-7-methoxy-methyloxy-3-methyl-2,3,4,5-tetrahydro-1H-3-benzazepine] | 5.4
